# Measurements as given in patent US8778926B2, “Compounds, pharmaceutical compositions and uses thereof” (Boehringer Ingelheim International GmbH, priority 2011, dated 2014).
# pEC50: −log10 of the molar value.
# Target: T1, human GPR119 (Homo sapiens, UniProt Q8TDV5)
# T1 construct: expression vector for human GPR119 cDNA (Acc. No. NP_848566); expressed in transfected cells
# T1 sequence (Q8TDV5 1-335): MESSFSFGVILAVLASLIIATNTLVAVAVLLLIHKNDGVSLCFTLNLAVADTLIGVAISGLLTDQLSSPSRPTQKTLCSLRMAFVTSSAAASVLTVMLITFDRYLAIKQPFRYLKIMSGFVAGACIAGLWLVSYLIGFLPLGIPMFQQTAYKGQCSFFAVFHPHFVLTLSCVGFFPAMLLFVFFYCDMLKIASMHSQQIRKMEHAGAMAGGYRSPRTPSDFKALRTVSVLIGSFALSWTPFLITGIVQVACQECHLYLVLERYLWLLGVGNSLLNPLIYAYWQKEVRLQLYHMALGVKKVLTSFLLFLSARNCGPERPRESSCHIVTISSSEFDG
# Assay: AlphaScreen cAMP assay, activation of GPR119 in Min-6/hGPR119 cells
# Assay type: cell-based
# Details: MIN6 cells stably transfected with human GPR119; intracellular cAMP; 45 minutes incubation at room temperature
# Procedure: The compounds of formula I according to the invention modulate the activity of the G-protein-coupled receptor GPR119. The effect of the compounds on the activation of GPR119 and on the stimulation of intracellular cAMP concentration is determined using the AlphaScreen cAMP Assay Kit (Cat. No. #6760625R) made by PerkinElmer.
# MIN6 cells [Miyazaki J et al. Endocrinology. 1990 July; 127(1):126-32] are stably transfected with an expression vector for human GPR119 cDNA (Acc. No. NP_848566). Min-6/hGPR119 cells are cultured in DMEM, 10% FBS, 500 μM β-mercaptoethanol, 0.3 mg/mL Geniticin, 2 mM GlutaMAX at 37° C. 5% CO2. For the assay, the cells are seeded in Optiplates (white, 384-well, 160 W— barcoded, TC, sterile with lid, Cat. No. #6007688 (Perkin Elmer); 10000 cells/well; 50 μl). The plates covered with lids are then incubated for 24 hours at 37° C./5% CO2. After the medium is aspirated from the wells completely, 10 μl of the test compound are added, the compounds are diluted using stimulating buffer (140 mM NaCl, 3.6 mM KCl, 0.5 mM NaH2PO4, 0.5 mM MgSO4, 1.5 mM CaCl2, 10 mM Hepes, 5 mM NaHCO3; pH 7.4. 0.5 mM IBMX and 0.1% BSA, the final DMSO concentration is 1%). After 45 minutes incubation at room temperature (approx. 20° C.), the cAMP concentrations are determined using the AlphaScreen cAMP Assay Kit (Cat. No. #6760625R from PerkinElmer).
row,SMILES,pEC50
1,"CS(=O)(=O)N1CC=C(c2cc3c(cn2)O[C@@H](C2CCN(c4nnc(C(F)(F)F)s4)CC2)C3)CC1 (single isomer, unassigned) [Example 81]",8.00
2,"Cc1cnc(N2CCC([C@]3(C)Cc4cc(C5=CCN(S(C)(=O)=O)CC5)ncc4O3)CC2)cn1 (single isomer, unassigned) [Example 53]",7.70
3,"CCc1cnc(N2CCC(C3Cc4cc(-c5ccc(S(C)(=O)=O)cc5)ncc4O3)CC2)cn1 (centres unmarked) [Example 11, 2-[1-(5-Ethyl-pyrazin-2-yl)-piperidin-4-yl]-5-(4-methanesulfonyl-phenyl)-2,3-dihydro-furo[2,3-c]pyridine]",7.23
4,"CCCc1noc(N2CCC(C3Cc4cc(-c5ccc(S(C)(=O)=O)cc5)ccc4O3)CC2)n1 (centres unmarked) [Example 4, 4-[5-(4-Methanesulfonyl-phenyl)-2,3-dihydro-benzofuran-2-yl]-1-(3-propyl-[1,2,4]oxadiazol-5-yl)-piperidine]",7.28
5,"CCc1cnc(N2CCC(C3Cc4cc(-c5ccc(CS(C)(=O)=O)cc5)ncc4O3)CC2)nc1 (centres unmarked) [Example 12, 2-[1-(5-Ethyl-pyrimidin-2-yl)-piperidin-4-yl]-5-(4-methanesulfonylmethyl-phenyl)-2,3-dihydro-furo[2,3-c]pyridine]",7.66
6,"C[C@@]1(C2CCN(c3ncc(C(F)(F)F)cn3)CC2)Cc2cc(C3=CCN(S(C)(=O)=O)CC3)ncc2O1 (single isomer, unassigned) [Example 35]",8.52
7,"C[C@@]1(C2CCN(c3cnc(C(F)(F)F)cn3)CC2)Cc2cc(C3=CCN(S(C)(=O)=O)CC3)ncc2O1 (single isomer, unassigned) [Example 38]",7.85
8,CCc1cnc(N2CCC(C3Cc4cc(-c5ccc(C(=O)NCc6cocn6)cc5)ccc4O3)CC2)nc1 (centres unmarked) [Example 64],7.48
9,CCc1cnc(N2CCC(C3Cc4cc(-c5ccc(C(=O)N(C)CCO)cc5)ccc4O3)CC2)nc1 (centres unmarked) [Example 78],7.41
10,"CCc1cnc(N2CCC([C@]3(C)Cc4cc(C5=CCN(S(C)(=O)=O)CC5)ncc4O3)CC2)nc1 (single isomer, unassigned) [Example 36]",8.30
11,"CC(C)c1noc(N2CCC([C@@H]3Cc4cc(C5=CCN(S(C)(=O)=O)CC5)ncc4O3)CC2)n1 (single isomer, unassigned) [Example 55]",7.80
12,CCc1cnc(N2CCC(C3Cc4cc(-c5ccc(C(=O)N6CCC(O)C6)cc5)ccc4O3)CC2)nc1 (centres unmarked) [Example 70],6.97
13,CC(C)(C)c1nc(N2CCC(C3Cc4cc(C5=CCN(S(C)(=O)=O)CC5)ncc4O3)CC2)no1 (centres unmarked) [Example 39],8.10
14,"CCCc1noc(N2CCC(C3Cc4cc(-c5ccc(S(C)(=O)=O)cc5)ncc4O3)CC2)n1 (centres unmarked) [Example 7, 5-(4-Methanesulfonyl-phenyl)-2-[1-(3-propyl-[1,2,4]oxadiazol-5-yl)-piperidin-4-yl]-2,3-dihydro-furo[2,3-c]pyridine]",7.46
15,"CCCc1nc(N2CCC(C3Cc4cc(-c5ccc(CS(C)(=O)=O)cc5F)ncc4O3)CC2)no1 (centres unmarked) [Example 25, 5-(2-Fluoro-4-methanesulfonylmethyl-phenyl)-2-[1-(5-propyl-[1,2,4]oxadiazol-3-yl)-piperidin-4-yl]-2,3-dihydro-furo[2,3-c]pyridine]",7.21
16,"CC(C)(C)c1nc(N2CCC([C@H]3Cc4cc(C5=CCN(S(C)(=O)=O)CC5)ncc4O3)CC2)no1 (single isomer, unassigned) [Example 50]",8.30
17,"CCCc1noc(N2CCC([C@]3(C)Cc4cc(-c5ccc(S(C)(=O)=O)cc5)ncc4O3)CC2)n1 (single isomer, unassigned) [Example 27]",7.82
18,"CCCc1nc(N2CCC(C3Cc4cc(-c5ccc(CS(C)(=O)=O)cc5)ncc4O3)CC2)no1 (centres unmarked) [Example 17, 5-(4-Methanesulfonylmethyl-phenyl)-2-[1-(5-propyl-[1,2,4]oxadiazol-3-yl)-piperidin-4-yl]-2,3-dihydro-furo[2,3-c]pyridine]",7.68
19,"CCCc1nc(N2CCC([C@]3(C)Cc4cc(C5=CCN(S(C)(=O)=O)CC5)ncc4O3)CC2)no1 (single isomer, unassigned) [Example 47]",8.22
20,"C[C@]1(C2CCN(c3ncc(Cl)cn3)CC2)Cc2cc(C3=CCN(S(C)(=O)=O)CC3)ncc2O1 (single isomer, unassigned) [Example 88]",7.23
